From the kinase profiling compilation of Christmann-Franck et al. (2016)

What was measured:
Assay in all cases: KINOMEscan competition binding
Conditions in all cases: compound 10.0 µM
ACVR2B (human) = ACVR2B (human) (UniProt Q13705)
CHEK2 (human) = CHEK2 (human) (UniProt O96017)
MAPK4 (human) = MAPK4 (human) (UniProt P31152)
CSNK1G1 (human) = CSNK1G1 (human) (UniProt Q9HCP0)
CDC2L2 (human) = CDC2L2 (human) (UniProt Q9UQ88)
ADCK3 (human) = ADCK3 (human) (UniProt Q8NI60)
STK10 (human) = STK10 (human) (UniProt O94804)
RPS6KA3 KD1 (human) = RPS6KA3 KD1 (human) (UniProt P51812)
RPS6KA3 KD1 (human), sequence (P51812 whole entry, looked up): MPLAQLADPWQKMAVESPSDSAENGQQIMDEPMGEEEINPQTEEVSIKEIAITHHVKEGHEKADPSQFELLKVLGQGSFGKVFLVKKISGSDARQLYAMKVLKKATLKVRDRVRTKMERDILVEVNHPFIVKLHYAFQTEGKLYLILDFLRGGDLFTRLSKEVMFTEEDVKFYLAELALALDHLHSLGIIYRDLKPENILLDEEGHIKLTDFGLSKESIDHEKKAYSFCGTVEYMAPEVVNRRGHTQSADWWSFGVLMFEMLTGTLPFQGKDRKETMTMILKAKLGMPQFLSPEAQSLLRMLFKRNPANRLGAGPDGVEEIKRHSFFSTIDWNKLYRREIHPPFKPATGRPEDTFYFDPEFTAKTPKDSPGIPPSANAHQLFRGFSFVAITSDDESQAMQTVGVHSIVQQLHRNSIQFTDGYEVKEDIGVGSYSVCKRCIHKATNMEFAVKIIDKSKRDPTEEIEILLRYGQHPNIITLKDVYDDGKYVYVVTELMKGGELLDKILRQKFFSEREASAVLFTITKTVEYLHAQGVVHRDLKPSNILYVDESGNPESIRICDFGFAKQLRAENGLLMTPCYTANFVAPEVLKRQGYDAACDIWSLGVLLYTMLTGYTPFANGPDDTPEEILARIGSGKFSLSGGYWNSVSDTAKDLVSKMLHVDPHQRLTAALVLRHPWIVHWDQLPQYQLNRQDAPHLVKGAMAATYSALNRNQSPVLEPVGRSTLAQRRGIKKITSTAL

PAK1 (human) = PAK1 (human) (UniProt Q13153)
MAP4K4 (human) = MAP4K4 (human) (UniProt O95819)
RIOK1 (human) = RIOK1 (human) (UniProt Q9BRS2)
LATS2 (human) = LATS2 (human) (UniProt Q9NRM7)
RIOK3 (human) = RIOK3 (human) (UniProt O14730)
PTK2B (human) = PTK2B (human) (UniProt Q14289)
CSNK1G3 (human) = CSNK1G3 (human) (UniProt Q9Y6M4)
CIT (human) = CIT (human) (UniProt O14578)
MAPK1 (human) = MAPK1 (human) (UniProt P28482)
CDK9 (human) = CDK9 (human) (UniProt P50750)
STK25 (human) = STK25 (human) (UniProt O00506)
STK25 (human), sequence (O00506 whole entry, looked up): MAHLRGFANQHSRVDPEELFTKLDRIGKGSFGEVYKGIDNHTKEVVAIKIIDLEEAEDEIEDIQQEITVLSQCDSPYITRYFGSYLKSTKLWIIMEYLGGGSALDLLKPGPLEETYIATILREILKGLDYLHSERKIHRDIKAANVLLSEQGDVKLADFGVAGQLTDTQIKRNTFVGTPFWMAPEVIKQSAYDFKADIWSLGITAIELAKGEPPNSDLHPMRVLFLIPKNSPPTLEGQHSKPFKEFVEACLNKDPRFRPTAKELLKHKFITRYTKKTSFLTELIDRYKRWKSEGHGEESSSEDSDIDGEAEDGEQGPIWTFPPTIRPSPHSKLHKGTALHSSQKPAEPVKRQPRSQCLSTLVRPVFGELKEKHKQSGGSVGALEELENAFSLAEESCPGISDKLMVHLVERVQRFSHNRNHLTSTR

PAK6 (human) = PAK6 (human) (UniProt Q9NQU5)
PAK6 (human), sequence (Q9NQU5 whole entry, looked up): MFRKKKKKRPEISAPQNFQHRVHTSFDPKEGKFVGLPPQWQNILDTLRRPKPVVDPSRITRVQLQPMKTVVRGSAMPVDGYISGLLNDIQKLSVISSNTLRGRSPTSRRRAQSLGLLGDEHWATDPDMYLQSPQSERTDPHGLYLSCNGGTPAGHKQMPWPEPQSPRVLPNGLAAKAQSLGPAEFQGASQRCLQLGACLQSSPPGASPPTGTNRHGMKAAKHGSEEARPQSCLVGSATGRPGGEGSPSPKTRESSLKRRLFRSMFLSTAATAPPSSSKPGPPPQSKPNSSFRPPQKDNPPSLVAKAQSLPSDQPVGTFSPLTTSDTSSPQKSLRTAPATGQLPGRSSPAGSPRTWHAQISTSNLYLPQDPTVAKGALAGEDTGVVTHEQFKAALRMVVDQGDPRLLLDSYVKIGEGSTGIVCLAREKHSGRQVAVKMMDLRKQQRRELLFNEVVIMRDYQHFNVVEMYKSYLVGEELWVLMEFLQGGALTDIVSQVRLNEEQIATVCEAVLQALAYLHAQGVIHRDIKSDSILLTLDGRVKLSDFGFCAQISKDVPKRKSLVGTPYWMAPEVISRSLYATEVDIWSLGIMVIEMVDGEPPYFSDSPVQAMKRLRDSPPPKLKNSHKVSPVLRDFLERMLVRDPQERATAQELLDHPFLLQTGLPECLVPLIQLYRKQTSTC

MAP3K11 (human) = MAP3K11 (human) (UniProt Q16584)
MAPK9 (human) = MAPK9 (human) (UniProt P45984)
LTK (human) = LTK (human) (UniProt P29376)
MAP3K5 (human) = MAP3K5 (human) (UniProt Q99683)
EPHA4 (human) = EPHA4 (human) (UniProt P54764)
DAPK1 (human) = DAPK1 (human) (UniProt P53355)
DAPK2 (human) = DAPK2 (human) (UniProt Q9UIK4)
CDK3 (human) = CDK3 (human) (UniProt Q00526)
[1] = molecular target: JAK1 JH1 catalytic (human) (UniProt P23458)
EPHA5 (human) = EPHA5 (human) (UniProt P54756)
RPS6KA6 KD2 (human) = RPS6KA6 KD2 (human) (UniProt Q9UK32)
RPS6KA6 KD2 (human), sequence (Q9UK32 whole entry, looked up): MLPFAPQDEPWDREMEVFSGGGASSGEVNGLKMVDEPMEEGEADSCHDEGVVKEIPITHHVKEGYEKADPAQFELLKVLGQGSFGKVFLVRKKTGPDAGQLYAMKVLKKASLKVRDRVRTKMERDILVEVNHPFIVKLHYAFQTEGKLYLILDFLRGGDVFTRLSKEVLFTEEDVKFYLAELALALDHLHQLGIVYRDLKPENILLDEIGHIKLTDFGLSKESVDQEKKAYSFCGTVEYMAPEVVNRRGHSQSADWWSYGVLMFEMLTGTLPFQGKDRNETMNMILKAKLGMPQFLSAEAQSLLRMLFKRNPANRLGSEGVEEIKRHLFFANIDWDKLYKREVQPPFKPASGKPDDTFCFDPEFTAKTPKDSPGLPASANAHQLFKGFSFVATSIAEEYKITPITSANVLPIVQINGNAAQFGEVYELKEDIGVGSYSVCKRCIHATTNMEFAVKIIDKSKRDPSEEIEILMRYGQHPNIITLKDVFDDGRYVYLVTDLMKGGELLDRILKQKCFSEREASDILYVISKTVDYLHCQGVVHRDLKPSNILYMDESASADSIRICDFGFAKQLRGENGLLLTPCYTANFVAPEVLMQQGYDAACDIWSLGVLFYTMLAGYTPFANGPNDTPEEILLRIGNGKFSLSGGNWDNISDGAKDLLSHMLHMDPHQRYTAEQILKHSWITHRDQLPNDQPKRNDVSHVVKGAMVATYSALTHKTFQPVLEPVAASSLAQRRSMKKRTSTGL

PRKD1 (human) = PRKD1 (human) (UniProt Q15139)
CAMK2G (human) = CAMK2G (human) (UniProt Q13555)
CAMK2G (human), sequence (Q13555 whole entry, looked up): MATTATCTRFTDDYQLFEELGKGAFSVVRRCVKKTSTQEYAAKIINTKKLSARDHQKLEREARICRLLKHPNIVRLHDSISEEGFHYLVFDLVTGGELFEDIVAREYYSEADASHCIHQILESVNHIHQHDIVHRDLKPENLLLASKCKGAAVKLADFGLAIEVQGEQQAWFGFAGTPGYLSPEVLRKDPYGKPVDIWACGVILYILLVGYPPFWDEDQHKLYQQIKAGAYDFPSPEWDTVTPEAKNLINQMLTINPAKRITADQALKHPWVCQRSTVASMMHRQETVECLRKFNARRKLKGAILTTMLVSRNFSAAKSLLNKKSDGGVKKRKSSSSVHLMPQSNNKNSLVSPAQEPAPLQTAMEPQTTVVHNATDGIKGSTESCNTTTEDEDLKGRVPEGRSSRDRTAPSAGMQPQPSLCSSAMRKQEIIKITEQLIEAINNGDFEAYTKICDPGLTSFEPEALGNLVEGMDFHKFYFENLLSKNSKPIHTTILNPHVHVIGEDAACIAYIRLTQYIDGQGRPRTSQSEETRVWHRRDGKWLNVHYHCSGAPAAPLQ

RIPK4 (human) = RIPK4 (human) (UniProt P57078)
TNK1 (human) = TNK1 (human) (UniProt Q13470)
TGFBR2 (human) = TGFBR2 (human) (UniProt P37173)
FRK (human) = FRK (human) (UniProt P42685)
FRK (human), sequence (P42685 whole entry, looked up): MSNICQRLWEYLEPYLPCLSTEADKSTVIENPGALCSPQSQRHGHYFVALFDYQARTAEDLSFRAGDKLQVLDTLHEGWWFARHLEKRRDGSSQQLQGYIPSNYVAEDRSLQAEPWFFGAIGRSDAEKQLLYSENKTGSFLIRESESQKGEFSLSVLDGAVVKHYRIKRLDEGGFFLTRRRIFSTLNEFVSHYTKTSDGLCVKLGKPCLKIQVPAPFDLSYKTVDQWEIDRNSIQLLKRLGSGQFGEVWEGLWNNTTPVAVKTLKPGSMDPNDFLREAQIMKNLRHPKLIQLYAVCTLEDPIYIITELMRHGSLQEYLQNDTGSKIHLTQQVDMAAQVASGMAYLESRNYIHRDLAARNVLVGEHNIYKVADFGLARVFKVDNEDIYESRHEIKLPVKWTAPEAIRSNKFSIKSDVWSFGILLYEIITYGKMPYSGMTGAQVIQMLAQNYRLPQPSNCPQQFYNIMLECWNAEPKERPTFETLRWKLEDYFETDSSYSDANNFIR

MINK1 (human) = MINK1 (human) (UniProt Q8N4C8)
MINK1 (human), sequence (Q8N4C8 whole entry, looked up): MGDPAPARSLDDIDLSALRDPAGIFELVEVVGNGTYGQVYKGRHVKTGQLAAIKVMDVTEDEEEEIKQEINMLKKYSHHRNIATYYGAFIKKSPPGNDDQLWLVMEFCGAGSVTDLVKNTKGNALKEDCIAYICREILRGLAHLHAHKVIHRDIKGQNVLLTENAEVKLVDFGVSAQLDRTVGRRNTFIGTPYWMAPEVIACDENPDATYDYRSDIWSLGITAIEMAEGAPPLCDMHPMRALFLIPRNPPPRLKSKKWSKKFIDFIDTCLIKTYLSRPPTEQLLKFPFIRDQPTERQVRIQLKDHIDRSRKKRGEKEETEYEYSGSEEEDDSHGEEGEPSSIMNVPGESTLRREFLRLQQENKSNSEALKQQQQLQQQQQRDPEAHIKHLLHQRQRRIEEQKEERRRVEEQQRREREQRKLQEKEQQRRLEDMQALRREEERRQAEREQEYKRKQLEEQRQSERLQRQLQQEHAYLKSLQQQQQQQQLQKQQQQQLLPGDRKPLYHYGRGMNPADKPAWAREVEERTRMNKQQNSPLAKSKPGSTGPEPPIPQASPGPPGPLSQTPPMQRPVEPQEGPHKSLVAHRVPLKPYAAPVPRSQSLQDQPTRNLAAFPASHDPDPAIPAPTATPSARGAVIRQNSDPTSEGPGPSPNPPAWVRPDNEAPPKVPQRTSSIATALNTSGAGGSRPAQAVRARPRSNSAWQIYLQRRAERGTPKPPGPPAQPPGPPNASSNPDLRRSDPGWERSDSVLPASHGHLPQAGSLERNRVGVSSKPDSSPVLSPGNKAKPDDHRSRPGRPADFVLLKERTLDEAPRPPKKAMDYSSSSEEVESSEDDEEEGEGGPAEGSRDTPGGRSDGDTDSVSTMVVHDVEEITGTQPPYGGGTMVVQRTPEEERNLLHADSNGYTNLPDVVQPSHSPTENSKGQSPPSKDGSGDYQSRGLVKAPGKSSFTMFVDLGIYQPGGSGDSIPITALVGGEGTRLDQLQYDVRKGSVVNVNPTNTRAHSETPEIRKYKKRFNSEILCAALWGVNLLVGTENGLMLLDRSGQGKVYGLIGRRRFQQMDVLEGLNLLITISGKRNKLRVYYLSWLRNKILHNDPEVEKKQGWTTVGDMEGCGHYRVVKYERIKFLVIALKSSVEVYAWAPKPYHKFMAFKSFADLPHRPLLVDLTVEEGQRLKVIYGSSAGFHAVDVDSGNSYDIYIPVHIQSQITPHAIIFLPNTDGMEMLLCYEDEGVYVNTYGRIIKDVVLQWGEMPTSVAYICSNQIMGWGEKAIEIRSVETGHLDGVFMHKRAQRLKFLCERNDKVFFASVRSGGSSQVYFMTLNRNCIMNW

STK32B (human) = STK32B (human) (UniProt Q9NY57)
TXK (human) = TXK (human) (UniProt P42681)

Cc1cc([C@@H](C)Nc2ccccc2C(=O)O)c2nc(N3CCOCC3)cc(=O)n2c1
kinase still bound, per cent of control (ACVR2B (human)): 100% | kinase still bound, per cent of control (CHEK2 (human)): 100% | kinase still bound, per cent of control (MAPK4 (human)): 98% | kinase still bound, per cent of control (CSNK1G1 (human)): 68% | kinase still bound, per cent of control (CDC2L2 (human)): 100% | kinase still bound, per cent of control (ADCK3 (human)): 86% | kinase still bound, per cent of control (STK10 (human)): 100% | kinase still bound, per cent of control (RPS6KA3 KD1 (human)): 91% | kinase still bound, per cent of control (PAK1 (human)): 100% | kinase still bound, per cent of control (MAP4K4 (human)): 97% | kinase still bound, per cent of control (RIOK1 (human)): 100% | kinase still bound, per cent of control (LATS2 (human)): 63% | kinase still bound, per cent of control (RIOK3 (human)): 100% | kinase still bound, per cent of control (PTK2B (human)): 100% | kinase still bound, per cent of control (CSNK1G3 (human)): 100% | kinase still bound, per cent of control (CIT (human)): 89% | kinase still bound, per cent of control (MAPK1 (human)): 100% | kinase still bound, per cent of control (CDK9 (human)): 100% | kinase still bound, per cent of control (STK25 (human)): 76% | kinase still bound, per cent of control (PAK6 (human)): 93% | kinase still bound, per cent of control (MAP3K11 (human)): 100% | kinase still bound, per cent of control (MAPK9 (human)): 66% | kinase still bound, per cent of control (LTK (human)): 95% | kinase still bound, per cent of control (MAP3K5 (human)): 100% | kinase still bound, per cent of control (EPHA4 (human)): 93% | kinase still bound, per cent of control (DAPK1 (human)): 95% | kinase still bound, per cent of control (DAPK2 (human)): 92% | kinase still bound, per cent of control (CDK3 (human)): 100% | kinase still bound, per cent of control [1]: 100% | kinase still bound, per cent of control (EPHA5 (human)): 99% | kinase still bound, per cent of control (RPS6KA6 KD2 (human)): 100% | kinase still bound, per cent of control (PRKD1 (human)): 89% | kinase still bound, per cent of control (CAMK2G (human)): 98% | kinase still bound, per cent of control (RIPK4 (human)): 99% | kinase still bound, per cent of control (TNK1 (human)): 100% | kinase still bound, per cent of control (TGFBR2 (human)): 95% | kinase still bound, per cent of control (FRK (human)): 83% | kinase still bound, per cent of control (MINK1 (human)): 100% | kinase still bound, per cent of control (STK32B (human)): 71% | kinase still bound, per cent of control (TXK (human)): 90%

CCN1CCN(Cc2ccc(Nc3ncc4c(n3)N(C)c3ccccc3C(=O)N4C)cc2C(F)(F)F)CC1
kinase still bound, per cent of control (ACVR2B (human)): 29% | kinase still bound, per cent of control (CHEK2 (human)): 100% | kinase still bound, per cent of control (MAPK4 (human)): 100% | kinase still bound, per cent of control (CSNK1G1 (human)): 7.6% | kinase still bound, per cent of control (CDC2L2 (human)): 97% | kinase still bound, per cent of control (ADCK3 (human)): 78% | kinase still bound, per cent of control (STK10 (human)): 28% | kinase still bound, per cent of control (RPS6KA3 KD1 (human)): 28% | kinase still bound, per cent of control (PAK1 (human)): 86% | kinase still bound, per cent of control (MAP4K4 (human)): 81% | kinase still bound, per cent of control (RIOK1 (human)): 33% | kinase still bound, per cent of control (LATS2 (human)): 91% | kinase still bound, per cent of control (RIOK3 (human)): 38% | kinase still bound, per cent of control (PTK2B (human)): 96% | kinase still bound, per cent of control (CSNK1G3 (human)): 5.4% | kinase still bound, per cent of control (CIT (human)): 99% | kinase still bound, per cent of control (MAPK1 (human)): 77% | kinase still bound, per cent of control (CDK9 (human)): 100% | kinase still bound, per cent of control (STK25 (human)): 47% | kinase still bound, per cent of control (PAK6 (human)): 79% | kinase still bound, per cent of control (MAP3K11 (human)): 84% | kinase still bound, per cent of control (MAPK9 (human)): 57% | kinase still bound, per cent of control (LTK (human)): 100% | kinase still bound, per cent of control (MAP3K5 (human)): 100% | kinase still bound, per cent of control (EPHA4 (human)): 100% | kinase still bound, per cent of control (DAPK1 (human)): 65% | kinase still bound, per cent of control (DAPK2 (human)): 70% | kinase still bound, per cent of control (CDK3 (human)): 100% | kinase still bound, per cent of control [1]: 93% | kinase still bound, per cent of control (EPHA5 (human)): 100% | kinase still bound, per cent of control (RPS6KA6 KD2 (human)): 16% | kinase still bound, per cent of control (PRKD1 (human)): 17% | kinase still bound, per cent of control (CAMK2G (human)): 81% | kinase still bound, per cent of control (RIPK4 (human)): 12% | kinase still bound, per cent of control (TNK1 (human)): 0.3% | kinase still bound, per cent of control (TGFBR2 (human)): 94% | kinase still bound, per cent of control (FRK (human)): 19% | kinase still bound, per cent of control (MINK1 (human)): 68% | kinase still bound, per cent of control (STK32B (human)): 100% | kinase still bound, per cent of control (TXK (human)): 34%
